# Test results taken from ChEMBL document CHEMBL3880421, “Indazole compounds and pharmaceutical compositions for inhibiting protein kinases, and methods for their use” (2003).
# Legend:
# Type in all cases: functional
# Conditions in all cases: Homo sapiens
# [1] = Antiproliferative activity against VEGF-stimulated HUVEC cells assessed as reduction in cell viability at 10 nM preincubated for 1 hr followed by addition of VEGF measured after 72 hrs by MTT assay
# [2] = Antiproliferative activity against VEGF-stimulated HUVEC cells assessed as reduction in cell viability at 2 nM preincubated for 1 hr followed by addition of VEGF measured after 72 hrs by MTT assay
# [3] = Antiproliferative activity against VEGF-stimulated HUVEC cells assessed as reduction in cell viability at 0.5 nM preincubated for 1 hr followed by addition of VEGF measured after 72 hrs by MTT assay
Structure (SMILES),inhibition at 0.01 µM [1] [%],inhibition at 0.002 µM [2] [%],inhibition at 0.0005 µM [3] [%]
CC(C)=CC1C(C(=O)Nc2cccc(Oc3ccc4c(/C=C/c5ccccc5)n[nH]c4c3)c2)C1(C)C (configuration not stated),24,–,–
CN(C)CCCC(=O)Nc1cccc(Nc2ccc3c(/C=C/c4ccccc4)n[nH]c3c2)c1,30,–,–
O=C(Nc1cccc(Oc2ccc3c(/C=C/c4ccccc4)n[nH]c3c2)c1)C1=C[C@@H](O)[C@@H](O)[C@H](O)C1,25,–,–
CCO/C(C)=C/C(=O)Nc1cccc(Nc2ccc3c(/C=C/c4ccccc4)n[nH]c3c2)c1,85,–,–
O=C(Nc1cccc(Nc2ccc3c(/C=C/c4ccccc4)n[nH]c3c2)c1)C1CC2CC(O)C1C2 (configuration not stated),-20,–,–
CN(C)CCCC(=O)Nc1cccc(C(=O)c2ccc3c(/C=C/c4ccccc4)n[nH]c3c2)c1,24,–,–
O=C(c1cccc(NC(=O)C2CCCO2)c1)c1ccc2c(/C=C/c3ccccc3)n[nH]c2c1 (configuration not stated),18,–,–
O=C(CC1=CCCCC1)Nc1cccc(Nc2ccc3c(/C=C/c4ccccc4)n[nH]c3c2)c1,81,–,–
C[C@@H]1[C@H](C)[C@H](C)C[C@@H]1C(=O)Nc1cccc(C(=O)c2ccc3c(/C=C/c4ccccc4)n[nH]c3c2)c1,5,–,–
COc1cccc(CC(=O)Nc2cccc(Nc3ccc4c(/C=C/c5ccccc5)n[nH]c4c3)c2)c1,34,–,–
O=C(CCN1CCCCC1)Nc1cccc(C(=O)c2ccc3c(/C=C/c4ccccc4)n[nH]c3c2)c1,2,–,–
O=C(Cc1cc(F)ccc1F)Nc1cccc(Oc2ccc3c(/C=C/c4ccccc4)n[nH]c3c2)c1,91,–,–
O=C(Cc1c(F)cccc1F)Nc1cccc(C(=O)c2ccc3c(/C=C/c4ccccc4)n[nH]c3c2)c1,81,–,–
Cc1cc(C(=O)Nc2cccc(C(=O)c3ccc4c(/C=C/c5ccccc5)n[nH]c4c3)c2)oc(=O)c1,64,–,–
CC(=O)N1CCC(C(=O)Nc2cccc(C(=O)c3ccc4c(/C=C/c5ccccc5)n[nH]c4c3)c2)CC1,33,–,–
C[C@@H]1[C@H](C)[C@H](C)C[C@@H]1C(=O)Nc1cccc(Nc2ccc3c(/C=C/c4ccccc4)n[nH]c3c2)c1,7,–,–
O=C1CCC(C(=O)Nc2cccc(Nc3ccc4c(/C=C/c5ccccc5)n[nH]c4c3)c2)CC1,-7,–,–
CC(C)(C)c1ccc(C(=O)Nc2cccc(C(=O)c3ccc4c(/C=C/c5ccccc5)n[nH]c4c3)c2)o1,71,–,–
O=C(Cc1cc(F)cc(F)c1)Nc1cccc(C(=O)c2ccc3c(/C=C/c4ccccc4)n[nH]c3c2)c1,87,–,–
CC1(C)OC(=O)[C@H](CC(=O)Nc2cccc(Oc3ccc4c(/C=C/c5ccccc5)n[nH]c4c3)c2)O1,22,–,–
CCCN(CCC)CC(=O)Nc1cccc(C(=O)c2ccc3c(/C=C/c4ccccc4)n[nH]c3c2)c1,-2,–,–
CCC(C(=O)Nc1cccc(C(=O)c2ccc3c(/C=C/c4ccccc4)n[nH]c3c2)c1)c1ccccc1C (configuration not stated),3,–,–
COc1cccc(/C=C/C(=O)Nc2cccc(C(=O)c3ccc4c(/C=C/c5ccccc5)n[nH]c4c3)c2)c1,35,–,–
CN1CSCCC1C(=O)Nc1cccc(C(=O)c2ccc3c(/C=C/c4ccccc4)n[nH]c3c2)c1 (configuration not stated),8,–,–
O=C(Cn1ccc2ccccc21)Nc1cccc(Oc2ccc3c(/C=C/c4ccccc4)n[nH]c3c2)c1,52,–,–
COc1cccc(/C=C/C(=O)Nc2cccc(Oc3ccc4c(/C=C/c5ccccc5)n[nH]c4c3)c2)c1,64,–,–

Structure (SMILES),inhibition at 0.01 µM [1] [%],inhibition at 0.002 µM [2] [%],inhibition at 0.0005 µM [3] [%]
O=C(/C=C/C1C[C@H]2C=C[C@H]1C2)Nc1cccc(Oc2ccc3c(/C=C/c4ccccc4)n[nH]c3c2)c1 (some centres not stated),48,–,–
CC(C)(C)c1ccc(C(=O)Nc2cccc(Nc3ccc4c(/C=C/c5ccccc5)n[nH]c4c3)c2)o1,60,–,–
CN(C)C(=S)SCC(=O)Nc1cccc(Nc2ccc3c(/C=C/c4ccccc4)n[nH]c3c2)c1,32,–,–
CN1CC(C(=O)Nc2cccc(Oc3ccc4c(/C=C/c5ccccc5)n[nH]c4c3)c2)CC1=O (configuration not stated),24,–,–
O=C(Nc1cccc(Oc2ccc3c(/C=C/c4ccccc4)n[nH]c3c2)c1)C(=O)C1=CCCCC1,57,–,–
O=C(Nc1cccc(Oc2ccc3c(/C=C/c4ccccc4)n[nH]c3c2)c1)c1cc(=O)cco1,18,–,–
CC(=O)NC(C)(C)CC(=O)Nc1cccc(Oc2ccc3c(/C=C/c4ccccc4)n[nH]c3c2)c1,42,–,–
O=C(CCN1CCCCC1)Nc1cccc(Oc2ccc3c(/C=C/c4ccccc4)n[nH]c3c2)c1,52,–,–
O=C(/C=C/C(=O)Nc1cccc(C(=O)c2ccc3c(/C=C/c4ccccc4)n[nH]c3c2)c1)NCC1CC1,3,–,–
Cc1cc(C(=O)Nc2cccc(Nc3ccc4c(/C=C/c5ccccc5)n[nH]c4c3)c2)no1,6,–,–
CCCN(CCC)CC(=O)Nc1cccc(Oc2ccc3c(/C=C/c4ccccc4)n[nH]c3c2)c1,25,–,–
C/C=C(\C)C(=O)Nc1cccc(Nc2ccc3c(/C=C/c4ccccc4)n[nH]c3c2)c1,98,–,–
CC1(C)OC(=O)CC1C(=O)Nc1cccc(Oc2ccc3c(/C=C/c4ccccc4)n[nH]c3c2)c1 (configuration not stated),25,–,–
O=C(Nc1cccc(Nc2ccc3c(/C=C/c4ccccc4)n[nH]c3c2)c1)C1=C[C@@H](O)[C@@H](O)[C@H](O)C1,6,–,–
CC(=O)N1CCC[C@@H]1C(=O)Nc1cccc(C(=O)c2ccc3c(/C=C/c4ccccc4)n[nH]c3c2)c1,37,–,–
C[C@@]12C[C@H]3C[C@H]1C[C@@]3(C(=O)Nc1cccc(C(=O)c3ccc4c(/C=C/c5ccccc5)n[nH]c4c3)c1)C2,-1,–,–
CCCN(CCC)CC(=O)Nc1cccc(Nc2ccc3c(/C=C/c4ccccc4)n[nH]c3c2)c1,17,–,–
CCNc1ccccc1C(=O)Nc1cccc(Oc2ccc3c(/C=C/c4ccccc4)n[nH]c3c2)c1,85,–,–
COc1cccc(/C=C/C(=O)Nc2cccc(Nc3ccc4c(/C=C/c5ccccc5)n[nH]c4c3)c2)c1,30,–,–
Cn1cnc(CC(=O)Nc2cccc(C(=O)c3ccc4c(/C=C/c5ccccc5)n[nH]c4c3)c2)c1,31,–,–
CC(C)[C@@H](O)C(=O)Nc1cccc(Oc2ccc3c(/C=C/c4ccccc4)n[nH]c3c2)c1,32,–,–
O=C(Cn1ccc2ccccc21)Nc1cccc(C(=O)c2ccc3c(/C=C/c4ccccc4)n[nH]c3c2)c1,-11,–,–
O=C(Nc1cccc(Oc2ccc3c(/C=C/c4ccccc4)n[nH]c3c2)c1)C1C[C@H]2C=C[C@H]1C2 (some centres not stated),82,–,–
O=C(Nc1cccc(Nc2ccc3c(/C=C/c4ccccc4)n[nH]c3c2)c1)C1CC2C=CC1CC2 (configuration not stated),6,–,–
O=C1CCC(C(=O)Nc2cccc(Oc3ccc4c(/C=C/c5ccccc5)n[nH]c4c3)c2)CC1,59,–,–
O=C(Nc1cccc(Nc2ccc3c(/C=C/c4ccccc4)n[nH]c3c2)c1)c1cc(=O)cco1,17,–,–

Structure (SMILES),inhibition at 0.01 µM [1] [%],inhibition at 0.002 µM [2] [%],inhibition at 0.0005 µM [3] [%]
O=C(Nc1cccc(Oc2ccc3c(/C=C/c4ccccc4)n[nH]c3c2)c1)C1CC2C=CC1CC2 (configuration not stated),13,–,–
CC(C)(C)c1ccc(C(=O)Nc2cccc(Oc3ccc4c(/C=C/c5ccccc5)n[nH]c4c3)c2)o1,52,–,–
O=C1CC[C@H](C(=O)Nc2cccc(Oc3ccc4c(/C=C/c5ccccc5)n[nH]c4c3)c2)N1,32,–,–
CC(C)c1ccccc1C(=O)Nc1cccc(Oc2ccc3c(/C=C/c4ccccc4)n[nH]c3c2)c1,35,–,–
Cc1ccc(C2(C(=O)Nc3cccc(Nc4ccc5c(/C=C/c6ccccc6)n[nH]c5c4)c3)CC2)cc1,2,–,–
C[C@@]12C[C@H]3C[C@H]1C[C@@]3(C(=O)Nc1cccc(Oc3ccc4c(/C=C/c5ccccc5)n[nH]c4c3)c1)C2,30,–,–
Cc1nc(S)sc1CC(=O)Nc1cccc(Nc2ccc3c(/C=C/c4ccccc4)n[nH]c3c2)c1,19,–,–
CC(C)c1ccccc1C(=O)Nc1cccc(C(=O)c2ccc3c(/C=C/c4ccccc4)n[nH]c3c2)c1,51,–,–
CC1(C)OC(=O)CC1C(=O)Nc1cccc(C(=O)c2ccc3c(/C=C/c4ccccc4)n[nH]c3c2)c1 (configuration not stated),5,–,–
CC(C)CC(O)C(=O)Nc1cccc(C(=O)c2ccc3c(/C=C/c4ccccc4)n[nH]c3c2)c1 (configuration not stated),47,–,–
CC(C)=NOC(C)C(=O)Nc1cccc(C(=O)c2ccc3c(/C=C/c4ccccc4)n[nH]c3c2)c1 (configuration not stated),28,–,–
CC(=O)N1CCC(C(=O)Nc2cccc(Nc3ccc4c(/C=C/c5ccccc5)n[nH]c4c3)c2)CC1,13,–,–
O=C(/C=C/C(=O)Nc1cccc(Nc2ccc3c(/C=C/c4ccccc4)n[nH]c3c2)c1)NCC1CC1,13,–,–
O=C1CC[C@H](C(=O)Nc2cccc(Nc3ccc4c(/C=C/c5ccccc5)n[nH]c4c3)c2)N1,20,–,–
COc1cccc(CC(=O)Nc2cccc(Oc3ccc4c(/C=C/c5ccccc5)n[nH]c4c3)c2)c1,86,–,–
CC(C)=CC1C(C(=O)Nc2cccc(C(=O)c3ccc4c(/C=C/c5ccccc5)n[nH]c4c3)c2)C1(C)C (configuration not stated),3,–,–
Cc1cc(C(=O)Nc2cccc(C(=O)c3ccc4c(/C=C/c5ccccc5)n[nH]c4c3)c2)c(C)[nH]1,26,–,–
O=C(Cc1c(F)cccc1F)Nc1cccc(Nc2ccc3c(/C=C/c4ccccc4)n[nH]c3c2)c1,40,–,–
O=C(NCCO)c1ccccc1Nc1ccc2c(/C=C/c3ccccn3)n[nH]c2c1,–,24,18
CCNC(=O)c1ccccc1Nc1ccc2c(/C=C/c3ccccn3)n[nH]c2c1,–,17,16
CC(C)(C)ONC(=O)c1ccccc1Nc1ccc2c(/C=C/c3ccccn3)n[nH]c2c1,–,64,-3
COC(CNC(=O)c1ccccc1Nc1ccc2c(/C=C/c3ccccn3)n[nH]c2c1)OC,–,89,47
O=C(NCC(c1ccccc1)c1ccccc1)c1ccccc1Nc1ccc2c(/C=C/c3ccccn3)n[nH]c2c1,–,15,11
CCOC(CNC(=O)c1ccccc1Nc1ccc2c(/C=C/c3ccccn3)n[nH]c2c1)OCC,–,47,11
